From paper PMC9860317, “Regulation of the DEAH/RHA helicase Prp43 by the G-patch factor Pfa1” (Proceedings of the National Academy of Sciences of the …, 2022)

Tests used:
ctPrp43–Pfa1(gp) complex = target: T1, ctPrp43–Pfa1(gp) complex (Thermochaetoides thermophila, UniProt G0RY84); assay: coupled ATPase assay, NADH absorption, Michaelis-Menten titration; assay type: biochemical; conditions: with Pfa1(gp), no ssRNA
T1 construct: gene CTHT_0005780; Prp43 with C-terminal His6 or Strep tag plus isolated G-patch motif of Pfa1; both from E. coli Rosetta II as GST fusions; borders in SI; with G-patch protein Pfa1 (G-patch motif)
T1 sequence (G0RY84 entry or part of it, one chain of several): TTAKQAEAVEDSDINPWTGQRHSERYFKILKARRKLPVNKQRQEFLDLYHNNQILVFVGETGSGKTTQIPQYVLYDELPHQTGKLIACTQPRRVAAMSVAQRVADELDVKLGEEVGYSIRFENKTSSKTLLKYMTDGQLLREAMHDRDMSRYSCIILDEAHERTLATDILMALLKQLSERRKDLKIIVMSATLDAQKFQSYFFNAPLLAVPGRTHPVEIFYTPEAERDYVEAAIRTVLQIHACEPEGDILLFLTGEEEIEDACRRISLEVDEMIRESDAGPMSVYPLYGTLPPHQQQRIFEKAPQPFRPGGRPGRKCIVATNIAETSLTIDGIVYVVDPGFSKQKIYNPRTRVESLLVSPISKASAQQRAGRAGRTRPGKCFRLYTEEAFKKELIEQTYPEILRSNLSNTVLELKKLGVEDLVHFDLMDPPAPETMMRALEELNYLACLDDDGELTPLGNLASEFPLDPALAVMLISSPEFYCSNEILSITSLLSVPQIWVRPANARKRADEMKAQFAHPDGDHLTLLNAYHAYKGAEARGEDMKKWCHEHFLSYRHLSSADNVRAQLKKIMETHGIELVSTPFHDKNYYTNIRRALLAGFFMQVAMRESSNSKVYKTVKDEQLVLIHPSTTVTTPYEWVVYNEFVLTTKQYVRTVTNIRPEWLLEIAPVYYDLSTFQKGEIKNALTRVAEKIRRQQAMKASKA
Source text: coupled ATPase assay, NADH absorption, Michaelis-Menten titration on ctPrp43–Pfa1(gp) complex | showing the stimulation of Prp43 ATPase activity by Pfa1(gp) and ssRNA

ctPrp43 (Prp43) = target: T2, ctPrp43 (Prp43) (Thermochaetoides thermophila, UniProt G0RY84); assay: as above; assay type: biochemical; conditions: no Pfa1(gp), no ssRNA
T2 construct: gene CTHT_0005780; expressed in E. coli Rosetta II as N-terminal GST fusion with C-terminal His6 or Strep tag; SEC purified; borders in SI
T2 sequence (G0RY84 entry or part of it): as the sequence (G0RY84 entry or part of it, one chain of several) above
Source text: coupled ATPase assay, NADH absorption, Michaelis-Menten titration on ctPrp43 (Prp43) | Michaelis–Menten titration and table with ATP turnover numbers (kcat) and dissociation constants (KM)

Work on `Nc1ncnc2c1ncn2[C@@H]1O[C@H](COP(=O)(O)OP(=O)(O)OP(=O)(O)O)[C@@H](O)[C@H]1O` [ATP] yielded a Km (ctPrp43–Pfa1(gp) complex) of 4.5 ± 0.3 µM and a Km (ctPrp43 (Prp43)) of 29.5 ± 6 µM.
